Series [1] relates to Me 275/EP (LN-met) melanoma cells. The series is described as follows: MTS assay of cell viability after BQ788. Format: cell-based, human. The settings on record: incubation with BQ788 for seven days; LN-met line. How it is done: (§1) Cells were cultured on a matrigel matrix that was histologically examined after two weeks (A-F). While the primary melanoma cells remained on top of the gel only (A and B), a fraction of the Cut-met cells invaded the gel (C and D) and the LN-met cells invaded the matrix extensively (E and F). Cell lysates of the three lines were subjected to western blot analysis using an anti-ETRB Ab (G) and an anti-tubulin Ab (H). Untreated, control (vehicle treated), and BQ788 treated cells were subjected to MTS assay to quantify any reduction in cell number. The mean values were calculated and plotted (I) as the percentage of the vehicle treated value+/− SEM.
(§2) Human melanoma cell lines Me191-1/GG (Primary), Me 190/DA (Cut-met), Me 275/EP (LN-met) were obtained from the Ludwig Institute (Epalinges, Switzerland) and SK-MEL-28 was obtained from the American Tissue Culture Collection (ATCC). […] After removal of the inserts, MTS solution was added to the well to quantify the cells that migrated through the insert and were attached to the bottom of the well by measuring the OD at 492 nm (Promega). […]
(§3) To address the relationship between the level of progression of human melanoma and responsiveness to BQ788 treatment, 3 cell lines that had been grown in culture for a restricted number of passages were used. […] This effect was quantified using the MTS assay.
A general note: Formazan colour is commonly taken as a measure of viable cells.

For series [2], the system named is Me 190/DA (Cut-met) melanoma cells. Kind of series: MTS assay of cell viability after BQ788. Format: cell-based, human. The settings on record: incubation with BQ788 for seven days. How it is done: as §1, §2, §3
Another series deals with kidney cells. The series is described as follows: MTS assay, number of viable cells. The class given is cell-based. The settings on record: high concentrations of BQ788.
The test system of a further series is 7 melanoma lines. The series is described as follows: MTS assay, number of viable cells. The class given is cell-based. The settings on record: 100 μM BQ788; all 7 melanoma lines tested.
In another series the test system is ETRB. Kind of series: Western blot of ETRB protein after BQ788. Format: cell-based, human. The settings on record: SK-MEL-28 cells; 3, 5 and 7 days with BQ788. The text has this: Real-time RT-PCR detection of ETRB transcripts (see legends FIG. 2) (A). ETRB protein expression compared to tubulin in SK-MEL-28 cells after 3, 5 and 7 days with (+) or without (−) BQ788 (B).
Samples were subjected to SDS-PAGE according to the method as described (Laemmli, Cleavage of structural proteins during the assembly of the head of bacteriophage T4, Nature, 227:680-685 (1970)). Proteins were blotted onto PVDF (Millipore) membranes and the filters were blocked with 5% non-fat dry milk. Immunostaining was preformed with anti-human endothelin receptor B antibody (Assay Designs, Inc.) (4 μg/ml) or anti-human Tubulin (Oncogene Research Products) (1 μg/ml) followed by incubation with a peroxidase conjugated goat anti rabbit secondary antibody (Sigma) (1:5000). Bands of 51 kd and 60 kd for ETRB (Hiraki, et al, Regular immunohistochemical localization of endothelin-1 and endothelin receptor B in normal, hyperplastic and neoplastic human adrenocortical cells, Pathol. Int., 47:117-125 (1997)) and tubulin respectively were detected using a chemiluminescent substrate kit (Interchim) according to the manufacturer's recommendations.
For orientation: Immunoblotting shows a protein as a band on a membrane.

Regarding `CCCC[C@@H](NC(=O)[C@@H](Cc1cn(C(=O)OC)c2ccccc12)NC(=O)[C@H](CC(C)(C)C)NC(=O)N1[C@H](C)CCC[C@@H]1C)C(=O)O` [BQ788, N-cis-2,6-dimethylpiperidinocarbonyl-L-γ-methylleucyl-D-1-methoxycarbonyltrptophanyl-D-norleucine], the reduction of viability was found to be 96% in series [1] and 45% in series [2]. For the same compound, the “number of kidney cells” value in the series with kidney cells is “not reduced”. Besides, the “number of viable cells” value with 7 melanoma lines is given as “very significant loss”. Besides, the ETRB protein levels result with ETRB is “reduced”.

For the origin of these results see US20060094676A1, “Compositions and methods for treating cancer using compositions comprising an inhibitor of endothelin receptor activity” (priority 2004, published 2006).
